Measurements from paper PMC12501029, “Discovery of a CNS active GSK3 degrader using orthogonally reactive linker screening” (Nature Communications, 2025).
Values after ≈ are worked out from the molar mass of the structure shown.

Columns and labels:
[1] = RealSOL kinetic solubility; type: physicochemical; conditions: PBS pH 7.4, 24 h, 25 °C; for solubility kinetic at 24 h: phosphate buffered saline, aqueous buffer, kinetic from dmso stock
Protocol: Solubility was assessed using an 'in-house' developed method known as 'RealSOL'. This solubility method measures the solubility in physiological strength phosphate buffered saline starting from 10 mM DMSO solutions of the test compounds. Although a 'kinetic'^[1] solubility method, the long shaking times appears to give solubility values that reflect more closely those made from solid samples when compared to a previous nephelometric method (unpublished in-house data).
Test compounds were dissolved in DMSO to give 10 mM solutions. Solubility test samples were prepared by adding a volume (5 µL) of the 10 mM solution to a volume (195 µL) of phosphate buffered saline, pH 7.4 (Sigma-Aldrich, Cat no. P4417, made as per manufacturer’s instructions). This solution was then mixed for 24 h (rotary mixing, 900 rpm, 25 °C) excluding light.
After mixing, the solubility test samples were filtered to remove any undissolved material using a proprietary filter (Millipore Multiscreen HTS filter, 96-well format). Samples were drawn through the filter using a vacuum.
The filtrate from the above was analysed for dissolved drug compound using a truncated UHPLC methodology. A Shimadzu Nexera X2 UHPLC system was used, with a reversed-phase column and a simple formic acid gradient elution. The UHPLC parameters are shown in Supporting Information Table 5.
A calibration solution was prepared in the following way: the same 10 mM solution used to prepare the solubility test sample was diluted in DMSO to give a 500 µM solution. This solution was then again diluted with 50:50 acetonitrile: water to give a 50 µM solution. Aliquots (0.2, 2.0 and 5.0 µL) of this 50 µM solution were then injected onto the UHPLC system and the areas of the resultant peaks integrated to produce a calibration line. Aliquots of the test sample filtrate (0.4 and 5.0 µL) were then injected onto the UHPLC system and the resultant peak areas for any peaks corresponding to the test compound determined and quantified using the calibration line (the injection volume that gave a peak area closest to the calibrated range was used for determining solubility).

[2] = Intrinsic clearance (Cli), mouse liver microsomes; type: in vitro ADME; conditions: 0.5 µM, scaling factor 48 mg microsomal protein per g liver
Protocol: (§1) Test compound (0.5 µM) was incubated with female CD1 mouse, male rat Han Wistar and pooled human liver microsomes (Xenotech^TM; 0.5 mg/mL 50 mM potassium phosphate buffer, pH7.4) and the reaction started with addition of excess NADPH (8 mg/mL 50 mM potassium phosphate buffer, pH7.4). Immediately, at time zero, then at 3, 6, 9, 15 and 30 min an aliquot (50 µL) of the incubation mixture was removed and mixed with acetonitrile (100 uL) to stop the reaction. An internal standard was added to all samples, the samples centrifuged to sediment precipitated protein and the plates then sealed prior to UPLC-MSMS analysis (Xevo TQ-S Micro, Waters^TM). XLfit (IDBS, UK) was used to calculate the exponential decay and consequently the rate constant (k) from the ratio of peak area of test compound to internal standard at each timepoint. The rate of intrinsic clearance (CLi) of each test compound was then calculated using the following calculation:1 CLi(mL/min/gliver)=kxVxMicrosomalproteinyield Where V (mL/mg protein) is the incubation volume/mg protein added and microsomal protein yield is taken as 48 mg, 46 mg and 40 mg protein/g liver for mouse, rat and human, respectively. Verapamil (0.5 µM) was used as a positive control to confirm acceptable assay performance.

[3] = Intrinsic clearance (Cli), human liver microsomes; type: in vitro ADME; conditions: 0.5 µM, scaling factor 40 mg microsomal protein per g liver
Protocol: as §1

[4] = Intrinsic clearance (Cli), rat liver microsomes; type: in vitro ADME; conditions: 0.5 µM, scaling factor 46 mg microsomal protein per g liver
Protocol: as §1

[5] = molecular target: T1, GSK3β-HiBiT (GSK3β-HiBiT KI HEK293 cells) (Homo sapiens, UniProt P49841); test: HiBiT lytic degradation assay / high-throughput screen, 24 h; type: cell-based; conditions: 24 h treatment; for DC50: pure (resynthesised, HPLC purified) compound
T1 construct: we generated endogenously tagged GSK3β-HiBiT knock-in (KI) HEK293 cells; endogenous in cells; host or cells: GSK3β-HiBiT knock-in HEK293 cells (CRISPR/Cas9, single-cell clone)
Protocol: Crude compounds were assumed to be 10 mM concentration in DMSO and after generating libraries directly used in biological tests in degradation screens. Stock solutions were serially diluted into white bottom opaque 384-well plates (Perkin Elmer) using Echo500 (Labcyte) and DMSO was backfilled to maintain same DMSO content in each well for all concentrations. […] HiBiT lytic assay buffer (Promega) prepared according to the manufacturer’s instructions and added onto each well using Multidrop^TM Combi reagent dispenser. Luminescence signal was measured on PheraStar plate reader (BMG) and obtained data normalised to DMSO conditions using Excel and further analysed using GraphPad Prism (v10.1.2) and degradation curves were generated using 4-parameter non-linear regression fit to calculate DC50 and Dmax values. Data points associated with concentrations displaying a hook effect were excluded prior to DC50 and Dmax calculation.

[6] = HEK293, crude mixture, stock assumed 10 mM
[7] = HEK293, pure (resynthesised, HPLC purified) compound

T1 sequence (P49841 whole entry): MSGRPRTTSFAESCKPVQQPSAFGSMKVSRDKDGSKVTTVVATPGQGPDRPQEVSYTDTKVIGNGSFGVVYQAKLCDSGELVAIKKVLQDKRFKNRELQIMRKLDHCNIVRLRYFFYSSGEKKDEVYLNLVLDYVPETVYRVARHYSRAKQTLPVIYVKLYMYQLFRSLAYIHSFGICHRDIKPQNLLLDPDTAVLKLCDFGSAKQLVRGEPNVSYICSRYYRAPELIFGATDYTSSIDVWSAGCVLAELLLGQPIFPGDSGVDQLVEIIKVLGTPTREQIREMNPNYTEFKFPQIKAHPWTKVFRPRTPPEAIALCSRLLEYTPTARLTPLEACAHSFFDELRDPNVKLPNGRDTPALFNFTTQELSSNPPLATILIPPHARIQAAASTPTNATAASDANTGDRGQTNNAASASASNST

Compound | solubility kinetic at 24 h [1] [µM] | Scaled Microsomal Stability MuClint [2] [ml/min/g liver] | Scaled Microsomal Stability HuClint [3] [ml/min/g liver] | Scaled Microsomal Stability RatClint [4] [ml/min/g liver] | Dmax [5, 6] [%] | Dmax [5, 7] [%] | RealSol [1] | DC50 ([5]; listed as KH1 (24)) | DC50 ([5]; listed as KH2 (26))
O=C1CCC(NC(=O)c2ccc(CN3CCN(Cc4ccc(-c5cn(-c6ccc(-c7cn8nccc(C(=O)Nc9cnccc9N9CCOCC9)c8n7)cc6)nn5)nc4)CC3)cn2)C(=O)N1 (stereo not shown) [compound 22] | < 1 | < 0.53 | 3.6 | 0.71 | 89 | 87 | – | – | –
Cn1nc(N2CCC(=O)NC2=O)c2ccc(CN3CCN(Cc4ccc(-c5cn(-c6ccc(-c7cn8nccc(C(=O)Nc9cnccc9N9CCOCC9)c8n7)cc6)nn5)nc4)CC3)cc21 [compound 24] | 2.7 (≈ 2.43 µg/mL) | 2.4 | 0.88 | 0.51 | 91 | 93 | low micromolar range | picomolar to single-digit nanomolar range | –
Cn1nc(N2CCC(=O)NC2=O)c2ccc(CN3CCN(CCCc4cn(-c5ccc(-c6cn7nccc(C(=O)Nc8cnccc8N8CCOCC8)c7n6)cc5)nn4)CC3)cc21 [compound 26] | 2.3 (≈ 1.95 µg/mL) | 4.0 | 1.6 | 1.3 | 78 | 80 | low micromolar range | – | picomolar to single-digit nanomolar range
